What follows are molecules tested against PDEδ (Homo sapiens, UniProt O43924) (assay: Fluorescence polarization competition binding assay (displacement titration of labeled Atorvastatin-probe)). Details: not given.
From the text: Example C.2: Displacement titrations of labeled Atorvastatin-probe for the determination of KD values:
Table 3. KD values for compounds of general formula (I) as determined by means of fluorescence polarization assay

How did the Kd turn out when `Cc1ccc(-n2nc3c(=O)n(CCCC(=O)NCc4ccccc4)nc(C)c3c2C)cc1` [Compound 42] was run?
Its Kd is less than 30 nM.

Same assay, conditions: fluorescence polarization assay, displacement of fluorescent-tagged Atorvastatin analog from PDEδ

With `Cc1c(Cl)cccc1NC(=O)CCCn1nc(C)c2c(C)n(-c3ccccc3)nc2c1=O` [Compound 29, N-(3-chloro-2-methylphenyl)-4-(3,4-dimethyl-7-oxo-2-phenyl-2H-pyrazolo[3,4-d]pyridazin-6(7H)-yl)butanamide] as the molecule, how does the Kd read?
The Kd was less than 30 nM.

Same assay, conditions: fluorescence polarization assay, displacement of fluorescent-tagged Atorvastatin analog from PDEδ; read-out: KD

For `Cc1nn(CCCC(=O)NCc2ccccc2)c(=O)c2nn(-c3ccccc3)c(C)c12` [Compound 31, N-benzyl-4-(3,4-dimethyl-7-oxo-2-phenyl-2H-pyrazolo[3,4-d]pyridazin-6(7H)-yl)butanamide], which Kd is on record?
Its Kd is 30 to 100 nM.

Which Kd does the source give for `COc1ccc(-c2nnc(CCCn3c(C)c4cnn(-c5ccccc5)c(=O)c4c3C)o2)cc1` [Compound 24, 6-(3-(5-(4-methoxyphenyl)-1,3,4-oxadiazol-2-yl)propyl)-5,7-dimethyl-2-phenyl-2,6-dihydro-1H-pyrrolo[3,4-d]pyridazin-1-one] here?
Its Kd is greater than 1000 nM.

With `Cc1nn(CCCC(=O)NCc2ccco2)c(=O)c2nn(-c3ccccc3)c(C)c12` [Compound 30, 4-(3,4-dimethyl-7-oxo-2-phenyl-2H-pyrazolo[3,4-d]pyridazin-6(7H)-yl)-N-(furan-2-ylmethyl)butanamide] as the molecule, how does the Kd read?
Its Kd is 30 to 100 nM.

With `Cc1c2cnn(-c3ccccc3)c(=O)c2c(C)n1CCCC(=O)NC1CCCC(C)C1C` (stereo not drawn) [Compound 14, 4-(5,7-dimethyl-1-oxo-2-phenyl-1H-pyrrolo[3,4-d]pyridazin-6(2H)-yl)-N-(2,3-dimethylcyclohexyl)butanamide] as the molecule, how does the Kd read?
The Kd was less than 30 nM.

Which Kd does the source give for `COc1ccc(OC)c(-c2noc(CCCn3c(C)c4cnn(-c5ccccc5)c(=O)c4c3C)n2)c1` [Compound 19, 6-(3-(3-(2,5-dimethoxyphenyl)-1,2,4-oxadiazol-5-yl)propyl)-5,7-dimethyl-2-phenyl-2,6-dihydro-1H-pyrrolo[3,4-d]pyridazin-1-one] here?
Its Kd is greater than 1000 nM.

How did the Kd turn out when `COc1ccc(CNC(=O)CCCn2nc(C)c3c(C)n(-c4ccccc4)nc3c2=O)cc1` [Compound 32, 4-(3,4-dimethyl-7-oxo-2-phenyl-2H-pyrazolo[3,4-d]pyridazin-6(7H)-yl)-N-(4-methoxybenzyl)butanamide] was run?
Its Kd is 30 to 100 nM.

With `Cc1ccc(-n2nc3c(=O)n(CCCC(=O)NCCc4ccccc4)nc(C)c3c2C)cc1` [Compound 46, 4-(3,4-dimethyl-7-oxo-2-(p-tolyl)-2H-pyrazolo[3,4-d]pyridazin-6(7H)-yl)-N-phenethylbutanamide] as the molecule, how does the Kd read?
Its Kd is less than 30 nM.

With `Cc1c2cnn(-c3ccccc3)c(=O)c2c(C)n1CCCc1nnc(-c2ccc(F)cc2)o1` [Compound 27, 6-(3-(5-(4-fluorophenyl)-1,3,4-oxadiazol-2-yl)propyl)-5,7-dimethyl-2-phenyl-2,6-dihydro-1H-pyrrolo[3,4-d]pyridazin-1-one] as the molecule, how does the Kd read?
Its Kd is 100 to 1000 nM.

Which Kd does the source give for `COc1cccc(CNC(=O)CCCn2c(C)c3cnn(-c4ccccc4)c(=O)c3c2C)c1` [Compound 2, 4-(5,7-dimethyl-1-oxo-2-phenyl-1H-pyrrolo[3,4-d]pyridazin-6(2H)-yl)-N-(3-methoxybenzyl)butanamide] here?
The Kd was 30 to 100 nM.

With `Cc1c2cnn(-c3ccccc3)c(=O)c2c(C)n1CCCc1nc(-c2ccc(C(F)(F)F)cc2)no1` [Compound 20, 5,7-dimethyl-2-phenyl-6-(3-(3-(4-(trifluoromethyl)phenyl)-1,2,4-oxadiazol-5-yl)propyl)-2,6-dihydro-1H-pyrrolo[3,4-d]pyridazin-1-one] as the molecule, how does the Kd read?
Its Kd is greater than 1000 nM.

Which Kd does the source give for `Cc1ccc(CCNC(=O)CCCn2nc(C)c3c(C)n(-c4ccccc4)nc3c2=O)cc1` [Compound 37, 4-(3,4-dimethyl-7-oxo-2-phenyl-2H-pyrazolo[3,4-d]pyridazin-6(7H)-yl)-N-(4-methylphenethyl)butanamide] here?
Its Kd is less than 30 nM.

Which Kd does the source give for `Cc1c2cnn(-c3ccccc3)c(=O)c2c(C)n1CCCc1nnc(-c2ccncc2)o1` [Compound 28, 5,7-dimethyl-2-phenyl-6-(3-(5-(pyridin-4-yl)-1,3,4-oxadiazol-2-yl)propyl)-2,6-dihydro-1H-pyrrolo[3,4-d]pyridazin-1-one] here?
Its Kd is greater than 1000 nM.

With `COc1ccccc1CNC(=O)CCCn1nc(C)c2c(C)n(-c3ccccc3)nc2c1=O` [Compound 34, 4-(3,4-dimethyl-7-oxo-2-phenyl-2H-pyrazolo[3,4-d]pyridazin-6(7H)-yl)-N-(2-methoxybenzyl)butanamide] as the molecule, how does the Kd read?
Its Kd is 30 to 100 nM.

For `Cc1c2cnn(-c3ccccc3)c(=O)c2c(C)n1CCCc1nc2ccccc2n1Cc1ccccc1` [Compound 15, 6-(3-(1-benzyl-1H-benzo[d]imidazol-2-yl)propyl)-5,7-dimethyl-2-phenyl-2,6-dihydro-1H-pyrrolo[3,4-d]pyridazin-1-one], which Kd is on record?
The Kd was less than 30 nM.

For `Cc1ccc(-n2nc3c(=O)n(CCCC(=O)NC4CCC(C)CC4)nc(C)c3c2C)cc1` (stereo not drawn) [Compound 53, 4-(3,4-dimethyl-7-oxo-2-(p-tolyl)-2H-pyrazolo[3,4-d]pyridazin-6(7H)-yl)-N-(4-methylcyclohexyl)butanamide], which Kd is on record?
The Kd was less than 30 nM.

Which Kd does the source give for `Cc1c2cnn(-c3ccccc3)c(=O)c2c(C)n1CCCC(=O)NCc1cccs1` [Compound 6, 4-(5,7-dimethyl-1-oxo-2-phenyl-1H-pyrrolo[3,4-d]pyridazin-6(2H)-yl)-N-(thiophen-2-ylmethyl)butanamide] here?
Its Kd is 100 to 1000 nM.

`COc1ccccc1-c1nnc(CCCn2c(C)c3cnn(-c4ccccc4)c(=O)c3c2C)o1` [Compound 25, 6-(3-(5-(2-methoxyphenyl)-1,3,4-oxadiazol-2-yl)propyl)-5,7-dimethyl-2-phenyl-2,6-dihydro-1H-pyrrolo[3,4-d]pyridazin-1-one] was tested. Which Kd did it give?
The Kd was 100 to 1000 nM.

How did the Kd turn out when `Cc1ccc(-n2nc3c(=O)n(CCCC(=O)NCc4ccccn4)nc(C)c3c2C)cc1` [Compound 40, 4-(3,4-dimethyl-7-oxo-2-(p-tolyl)-2H-pyrazolo[3,4-d]pyridazin-6(7H)-yl)-N-(pyridin-2-ylmethyl)butanamide] was run?
The Kd was 100 to 1000 nM.

How did the Kd turn out when `Cc1c2cnn(-c3ccccc3)c(=O)c2c(C)n1CCCC(=O)NC1CCCCC1` [Compound 11, N-cyclohexyl-4-(5,7-dimethyl-1-oxo-2-phenyl-1H-pyrrolo[3,4-d]pyridazin-6(2H)-yl)butanamide] was run?
Its Kd is less than 30 nM.

How did the Kd turn out when `COc1ccc(-c2noc(CCCn3c(C)c4cnn(-c5ccccc5)c(=O)c4c3C)n2)cc1` [Compound 18, 6-(3-(3-(4-methoxyphenyl)-1,2,4-oxadiazol-5-yl)propyl)-5,7-dimethyl-2-phenyl-2,6-dihydro-1H-pyrrolo[3,4-d]pyridazin-1-one] was run?
The Kd was greater than 1000 nM.

How did the Kd turn out when `Cc1c2cnn(-c3ccccc3)c(=O)c2c(C)n1CCCC(=O)NC1CCCCC1C` (stereo not drawn) [Compound 13, 4-(5,7-dimethyl-1-oxo-2-phenyl-1H-pyrrolo[3,4-d]pyridazin-6(2H)-yl)-N-(2-methylcyclohexyl)butanamide] was run?
The Kd was less than 30 nM.

For `Cc1ccc(-n2nc3c(=O)n(CCCC(=O)NCc4ccc(OC(C)C)cc4)nc(C)c3c2C)cc1` [Compound 45], which Kd is on record?
The Kd was less than 30 nM.

`Cc1c2cnn(-c3ccccc3)c(=O)c2c(C)n1CCCC(=O)NCc1ccccn1` [Compound 8, 4-(5,7-dimethyl-1-oxo-2-phenyl-1H-pyrrolo[3,4-d]pyridazin-6(2H)-yl)-N-(pyridin-2-ylmethyl)butanamide] was tested. Which Kd did it give?
The Kd was 100 to 1000 nM.

`Cc1c2cnn(-c3ccccc3)c(=O)c2c(C)n1CCCc1nnc(-c2ccccc2)o1` [Compound 22, 5,7-dimethyl-2-phenyl-6-(3-(5-phenyl-1,3,4-oxadiazol-2-yl)propyl)-2,6-dihydro-1H-pyrrolo[3.4-d]pyridazin-1-one] was tested. Which Kd did it give?
Its Kd is 100 to 1000 nM.

`Cc1c2cnn(-c3ccccc3)c(=O)c2c(C)n1CCCC(=O)NCc1ccccc1` [Compound 1, N-benzyl-4-(5,7-dimethyl-1-oxo-2-phenyl-1H-pyrrolo[3,4-d]pyridazin-6(2H)-yl)butanamide] was tested. Which Kd did it give?
The Kd was 30 to 100 nM.

For `Cc1c2cnn(-c3ccccc3)c(=O)c2c(C)n1CCCc1nnc(-c2ccc(C(F)(F)F)cc2)o1` [Compound 26, 5,7-dimethyl-2-phenyl-6-(3-(5-(4-(trifluoromethyl)phenyl)-1,3,4-oxadiazol-2-yl)propyl)-2,6-dihydro-1H-pyrrolo[3,4-d]pyridazin-1-one], which Kd is on record?
The Kd was 100 to 1000 nM.

With `Cc1c2cnn(-c3ccccc3)c(=O)c2c(C)n1CCCC(=O)NCc1ccc(Cl)cc1` [Compound 5, N-(4-chlorobenzyl)-4-(5,7-dimethyl-1-oxo-2-phenyl-1H-pyrrolo[3,4-d]pyridazin-6(2H)-yl)butanamide] as the molecule, how does the Kd read?
The Kd was 30 to 100 nM.

With `Cc1ccc(-n2nc3c(=O)n(CCCC(=O)NCCc4cccc(Cl)c4)nc(C)c3c2C)cc1` [Compound 49, N-(3-chlorophenethyl)-4-(3,4-dimethyl-7-oxo-2-(p-tolyl)-2H-pyrazolo[3,4-d]pyridazin-6(7H)-yl)butanamide] as the molecule, how does the Kd read?
The Kd was less than 30 nM.

For `Cc1ccc(-n2nc3c(=O)n(CCCC(=O)NCc4ccco4)nc(C)c3c2C)cc1` [Compound 38, 4-(3,4-dimethyl-7-oxo-2-(p-tolyl)-2H-pyrazolo[3,4-d]pyridazin-6(7H)-yl)-N-(furan-2-ylmethyl)butanamide], which Kd is on record?
The Kd was 30 to 100 nM.

How did the Kd turn out when `Cc1ccc(-n2nc3c(=O)n(CCCC(=O)NC4CC4)nc(C)c3c2C)cc1` [Compound 51, N-cyclopropyl-4-(3,4-dimethyl-7-oxo-2-(p-tolyl)-2H-pyrazolo[3,4-d]pyridazin-6(7H)-yl)butanamide] was run?
The Kd was 100 to 1000 nM.

Which Kd does the source give for `Cc1ccc(-n2nc3c(=O)n(CCCC(=O)NC4CCCC4)nc(C)c3c2C)cc1` [Compound 52, N-cyclopentyl-4-(3,4-dimethyl-7-oxo-2-(p-tolyl)-2H-pyrazolo[3,4-d]pyridazin-6(7H)-yl)butanamide] here?
Its Kd is less than 30 nM.

For `Cc1c2cnn(-c3ccccc3)c(=O)c2c(C)n1CCCc1nc(-c2ccccc2)no1` [Compound 16, 5,7-dimethyl-2-phenyl-6-(3-(3-phenyl-1,2,4-oxadiazol-5-yl)propyl)-2,6-dihydro-1H-pyrrolo[3,4-d]pyridazin-1-one], which Kd is on record?
The Kd was 100 to 1000 nM.

With `Cc1c2cnn(-c3ccccc3)c(=O)c2c(C)n1CCCC(=O)NCc1cccc(Cl)c1` [Compound 3, N-(3-chlorobenzyl)-4-(5,7-dimethyl-1-oxo-2-phenyl-1H-pyrrolo[3,4-d]pyridazin-6(2H)-yl)butanamide] as the molecule, how does the Kd read?
Its Kd is 30 to 100 nM.

How did the Kd turn out when `COc1cccc(CNC(=O)CCCn2nc(C)c3c(C)n(-c4ccccc4)nc3c2=O)c1` [Compound 33, 4-(3,4-dimethyl-7-oxo-2-phenyl-2H-pyrazolo[3,4-d]pyridazin-6(7H)-yl)-N-(3-methoxybenzyl)butanamide] was run?
Its Kd is 30 to 100 nM.

From patent EP2955182A1, “Pyridazinones for the treatment of cancer” (Max-Planck-Gesellschaft zur Förderung der Wissenschaften …, priority 2014, dated 2015)
